Source: patent publication US8518957B2, “Methanocarba adenosine derivatives, pharmaceutical compositions, and method of reducing intraocular pressure” (The United States of America, as represented by the …, priority 2009, dated 2013)

Target: T1, human A3AR (Homo sapiens, UniProt P0DMS8)
T1 construct: expressed in transfected cells
T1 sequence (P0DMS8 1-318): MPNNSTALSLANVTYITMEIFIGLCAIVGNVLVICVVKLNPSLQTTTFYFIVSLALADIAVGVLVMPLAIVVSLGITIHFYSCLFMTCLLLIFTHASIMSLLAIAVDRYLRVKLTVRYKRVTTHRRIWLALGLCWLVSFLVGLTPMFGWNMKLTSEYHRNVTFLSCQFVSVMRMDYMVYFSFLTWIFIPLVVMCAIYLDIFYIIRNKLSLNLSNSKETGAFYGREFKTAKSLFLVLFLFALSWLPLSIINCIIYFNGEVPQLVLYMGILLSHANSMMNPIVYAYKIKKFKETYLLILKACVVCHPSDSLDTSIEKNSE
Test: Radioligand binding at human A3 AR ([125I]I-AB-MECA, membranes of CHO cells)
Details: for Ki: [125I]38, CHO cells, read-out: Affinity (Ki, nM), A3
How it was run: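 Membranes came from CHO cells stably expressing hA3R, pretreated with adenosine deaminase (3 units/mL). Competition with agonist radioligand was run in 50 mM Tris-HCl pH 7.5, 10 mM MgCl2 for 60 min at 25 °C, followed by GF/B filtration and γ-counting. Ki values derived.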

SMILES: C#CCCCCC#Cc1nc(NCc2cccc(Cl)c2)c2ncn(C3C(O)C(O)C4(C(=O)NC)CC34)c2n1 (stereo not drawn) [Compound 9, (1′S, 2′R, 3′S, 4′S, 5′S)-4′-[6-(3-Chlorobenzylamino)-2-(1,7-octadiynyl)-9H-purin-9-yl]-2′,3′-dihydroxybicyclo[3.1.0]hexane-1′-carboxylic acid N-methylamide]
- Ki: 29.4 ± 9.8 nM

SMILES: CNC(=O)[C@@]12C[C@@H]1[C@@H](n1cnc3c(NCc4cccc(Cl)c4)nc(C#CCCCCc4cn(-c5ccc(F)c([N+](=O)[O-])c5)nn4)nc31)[C@H](O)[C@@H]2O [Compound 11]
- Ki: 10.6 ± 3.8 nM

SMILES: CNC(=O)[C@@]12C[C@@H]1[C@@H](n1cnc3c(NCc4cccc(Cl)c4)nc(C#CCCCCc4cn(-c5ccc(N)cc5)nn4)nc31)[C@H](O)[C@@H]2O [Compound 12, (1S,2R,3S,4R,5S)-4′-(6-(3-Chlorobenzylamino)-2-(6-(1-(4-amino-phenyl)-1H-1,2,3-triazol-4-yl)hex-1-ynyl)-9H-purin-9-yl)-2′,3′-dihydroxybicyclo[3.1.0]hexane-1′-carboxylic acid N-methylamide]
- Ki: 87.1 ± 13.1 nM

SMILES: CNC(=O)[C@@]12C[C@@H]1[C@@H](n1cnc3c(NCc4cccc(Cl)c4)nc(C#CCCCCc4cn(-c5ccc(C(=O)O)cc5)nn4)nc31)[C@H](O)[C@@H]2O [Compound 13, (1S,2R,3S,4R,5S)-4′-(6-(3-Chlorobenzylamino)-2-(6-(1-(4-carboxyl-phenyl)-1H-1,2,3-triazol-4-yl)hex-1-ynyl)-9H-purin-9-yl)-2′,3′-dihydroxybicyclo[3.1.0]hexane-1′-carboxylic acid N-methylamide]
- Ki: 180 ± 23 nM

SMILES: CNC(=O)[C@@]12C[C@@H]1[C@@H](n1cnc3c(NCc4cccc(Cl)c4)nc(C#CCCCCc4cn(-c5ccc(C(=O)CBr)cc5)nn4)nc31)[C@H](O)[C@@H]2O [Compound 14, (1S,2R,3S,4R,5S)-6-(3-Chlorobenzylamino)-4-(2-(6-(4-(2-bromoacetyl)phenyl)-1H-1,2,3-triazol-4-yphex-1-ynyl)-9H-purin-9-yl)-2′,3′-dihydroxybicyclo[3.1.0]hexane-1′-carboxylic acid N-methylamide]
- Ki: 9.6 ± 1.3 nM

SMILES: CNC(=O)[C@@]12C[C@@H]1[C@@H](n1cnc3c(NCc4cccc(Cl)c4)nc(C#CCCCCc4cn(CCNC(C)=O)nn4)nc31)[C@H](O)[C@@H]2O [Compound 15, (1S,2R,3S,4R,5S)-6-(3-Chlorobenzylamino)-(2-(6-(1-(4-acetamidoethyl)-1H-1,2,3-triazol-4-yl)hex-1-ynyl)-9H-purin-9-yl)-2′,3′-dihydroxybicyclo[3.1.0]hexane-1′-carboxylic acid N-methylamide]
- Ki: 22.3 ± 1.6 nM

SMILES: CNC(=O)[C@@]12C[C@@H]1[C@@H](n1cnc3c(NCc4cccc(Cl)c4)nc(C#CCCCCc4cn(CCCCN)nn4)nc31)[C@H](O)[C@@H]2O [Compound 16, (1S,2R,3S,4R,5S)-6-(3-Chlorobenzylamino)-(2-(6-(1-(4-aminobutyl)-1H-1,2,3-triazol-4-yl)hex-1-ynyl)-9H-purin-9-yl)-2′,3′-dihydroxybicyclo[3.1.0]hexane-1′-carboxylic acid N-methylamide]
- Ki: 47 ± 1.8 nM

SMILES: CNC(=O)[C@@]12C[C@@H]1[C@@H](n1cnc3c(NCc4cccc(Cl)c4)nc(C#CCCCCc4cn(CCCCNC(C)=O)nn4)nc31)[C@H](O)[C@@H]2O [Compound 17, (1S,2R,3S,4R,5S)-6-(3-Chlorobenzylamino)-(2-(6-(1-(4-acetamidobutyl)-1H-1,2,3-triazol-4-yl)hex-1-ynyl)-9H-purin-9-yl)-2′,3′-dihydroxybicyclo[3.1.0]hexane-1′-carboxylic acid N-methylamide]
- Ki: 89.5 ± 12.6 nM

SMILES: CNC(=O)[C@@]12C[C@@H]1[C@@H](n1cnc3c(NCc4cccc(Cl)c4)nc(C#CCCCCc4cn(C56CC7CC(CC(C7)C5)C6)nn4)nc31)[C@H](O)[C@@H]2O [Compound 18, (1S,2R,3S,4R,5S)-6-(3-Chlorobenzylamino)-(2-(6-(1-(adamantyl)-1H-1,2,3-triazol-4-yl)hex-1-ynyl)-9H-purin-9-yl)-2′,3′-dihydroxybicyclo[3.1.0]hexane-1′-carboxylic acid N-methylamide]
- Ki: 6.5 ± 0.5 nM
- selectivity for the hA3AR in comparison to the hA1 and hA2A ARs (radioligand binding inhibition curves, figure legends): highly selective

SMILES: CNC(=O)[C@@]12C[C@@H]1[C@@H](n1cnc3c(NCc4cccc(Cl)c4)nc(C#CCCCCc4cn(Cc5ccc(-n6sccc6=O)cc5)nn4)nc31)[C@H](O)[C@@H]2O [Compound 19, (1S,2R,3S,4R,5S)-6-(3-Chlorobenzylamino)-(2-(1-(4-3-oxoisothiazol-2(3H)-yl)benzyl-1H-1,2,3-triazol-4-yphex-1-ynyl)-9H-purin-9-yl)-2′,3′-dihydroxybicyclo[3.1.0]hexane-β-carboxylic acid N-methylamide]
- Ki: 102 ± 25 nM

SMILES: CNC(=O)[C@@]12C[C@@H]1[C@@H](n1cnc3c(NCc4cccc(Cl)c4)nc(C#CCCCCc4cn(CCCCCCNC(=O)CCCC[C@@H]5SC[C@@H]6NC(=O)N[C@@H]65)nn4)nc31)[C@H](O)[C@@H]2O [Compound 20, (1S,2R,3S,4R,5S)-6-(3-Chlorobenzylamino)-(2-(6-(1-(6-(5-(3aS,4S,6aR)-oxohexahydro-1H-thieno[3,4-d]imidazol-4-yl)pentanamido)hexyl-1H-1,2,3-triazol-4-yl)hex-1-ynyl)-9H-purin-9-yl)-2′,3′-dihydroxybicyclo[3.1.0]hexane-1′-carboxylic acid N-methylamide]
- Ki: 285 ± 54 nM

SMILES: CNC(=O)[C@@]12C[C@@H]1[C@@H](n1cnc3c(NCc4cccc(Cl)c4)nc(C#CCCCCc4cn(CCCCCCC(=O)NCCCCCCNC(=O)CCCC[C@@H]5SC[C@@H]6NC(=O)N[C@@H]65)nn4)nc31)[C@H](O)[C@@H]2O [Compound 21]
- Ki: 235 ± 43 nM

SMILES: CNC(=O)[C@@]12C[C@@H]1[C@@H](n1cnc3c(NCc4cccc(Cl)c4)nc(C#CCCCCc4cn(CCCCCCNC(=O)c5ccc(-c6c7ccc(=N)c(S(=O)(=O)O)c-7oc7c(S(=O)(=O)O)c(N)ccc67)c(C(=O)O)c5)nn4)nc31)[C@H](O)[C@@H]2O [Compound 23]
- Ki: 416 ± 45 nM

SMILES: CNC(=O)[C@@]12C[C@@H]1[C@@H](n1cnc3c(NCc4cccc(Cl)c4)nc(-c4nnn(-c5ccc(N=C=S)cc5)c4CCCCc4cn(-c5ccc(N=C=S)cc5)nn4)nc31)[C@H](O)[C@@H]2O [Compound 25, (1S,2R,3S,4R,5S)-6-(3-Chlorobenzylamino)-(2-(1,6-bis(4-isothiocyante-phenyl)-1H-bis(1,2,3-triazol-4-yl)hex-1-ynyl)-9H-purin-9-yl)-2′,3′-dihydroxybicyclo[3.1.0]hexane-1′-carboxylic acid N-methylamide]
- Ki: 8.8 ± 1.3 nM

SMILES: CNC(=O)[C@@]12C[C@@H]1[C@@H](n1cnc3c(NCc4cccc(Cl)c4)nc(C#CCCCCc4cn(-c5ccc(N=C=S)cc5)nn4)nc31)[C@H](O)[C@@H]2O [Compound 26, (1S,2R,3S,4R,5S)-6-(3-Chlorobenzylamino)-(2-(6-(1-(4-isothiocyante-phenyl)-1H-1,2,3-triazol-4-yl)hex-1-ynyl)-9H-purin-9-yl)-2′,3′-dihydroxybicyclo[3.1.0]hexane-1′-carboxylic acid N-methylamide]
- Ki: 37.5 ± 16 nM
